Experimental data reported in ChEMBL document CHEMBL5241054, “Effective anti-aromatase therapy to battle against estrogen-mediated breast cancer: Comparative SAR/QSAR assessment on steroidal aromatase inhibitors” (Eur J Med Chem, 2020).
Where “and” joins values, the source holds several entries; their conditions need not be identical. Identical values can stand only once.

Tests used:
Aromatase [1] = biological target: T1, Aromatase (Homo sapiens, UniProt P11511)
T1 sequence (P11511 whole entry): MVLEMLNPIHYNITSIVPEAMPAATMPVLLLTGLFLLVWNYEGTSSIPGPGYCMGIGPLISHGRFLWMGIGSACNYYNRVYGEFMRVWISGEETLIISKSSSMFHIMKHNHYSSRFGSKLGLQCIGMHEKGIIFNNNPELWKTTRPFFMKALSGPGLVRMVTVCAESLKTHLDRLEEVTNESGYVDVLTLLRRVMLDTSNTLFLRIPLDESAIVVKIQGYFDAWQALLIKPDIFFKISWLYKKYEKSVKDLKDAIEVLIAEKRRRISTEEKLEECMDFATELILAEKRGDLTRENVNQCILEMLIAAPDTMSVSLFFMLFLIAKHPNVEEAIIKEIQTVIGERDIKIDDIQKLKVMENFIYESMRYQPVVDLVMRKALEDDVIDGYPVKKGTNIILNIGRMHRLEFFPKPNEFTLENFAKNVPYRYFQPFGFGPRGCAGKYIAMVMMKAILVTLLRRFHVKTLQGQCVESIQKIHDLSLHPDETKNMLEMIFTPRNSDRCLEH

Aromatase [2] = biological target: T1, Aromatase; remark: listed apart in the source

SMILES | IC50 (Aromatase [1]) [nM] | IC50 (Aromatase [2])
C[C@]12CCC(=O)C=C1C=C(Cc1ccc([N+](=O)[O-])cc1)[C@@H]1[C@@H]2CC[C@]2(C)C(=O)CC[C@@H]12 | 94 | 929 nM
C[C@]12CCC(=O)C=C1C=C(Cc1ccc(N)cc1)[C@@H]1[C@@H]2CC[C@]2(C)C(=O)CC[C@@H]12 | 87.9 | 490 nM
C[C@]12CCC(=O)C=C1C(=O)C[C@@H]1[C@@H]2CC[C@]2(C)C(=O)CC[C@@H]12 | 280 | 1100 nM and 280 nM
C[C@]12C=CC(=O)C=C1C[C@@H](CCCc1ccccc1)[C@@H]1[C@@H]2CC[C@]2(C)C(=O)CC[C@@H]12 | 63.7 | 7.69 nM
CCCO[C@H]1C[C@@H]2[C@H](CC[C@]3(C)C(=O)CC[C@@H]23)[C@@]2(C)CCC(=O)C=C12 | – | 1300 nM
CO[C@@H]1C[C@@]2(C)C(=CC1=O)CC[C@@H]1[C@@H]2CC[C@]2(C)C(=O)CC[C@@H]12 | – | 11800 nM
CCCCO[C@H]1C[C@@H]2[C@H](CC[C@]3(C)C(=O)CC[C@@H]23)[C@@]2(C)CCC(=O)C=C12 | – | 780 nM
C[C@]12CCC(=O)C[C@@H]1C(=O)C[C@@H]1[C@@H]2CC[C@]2(C)C(=O)CC[C@@H]12 | – | 4000 nM
CCO[C@H]1C[C@@H]2[C@H](CC[C@]3(C)C(=O)CC[C@@H]23)[C@@]2(C)CCC(=O)C=C12 | – | 1400 nM
C[C@]12C=CC(=O)C=C1C=C(c1ccccc1)[C@@H]1[C@@H]2CC[C@]2(C)C(=O)CC[C@@H]12 | – | 2220 nM
C[C@]12C=CC(=O)C=C1CC[C@@H]1[C@@H]2CC[C@]2(C)C(=O)C(Br)C[C@@H]12 (some centres undefined) | – | 13200 nM
CO[C@H]1C[C@@H]2[C@H](CC[C@]3(C)C(=O)CC[C@@H]23)[C@@]2(C)C=CC(=O)C=C12 | – | 440 nM
CO[C@H]1C[C@@H]2[C@H](CC[C@]3(C)C(=O)CC[C@@H]23)[C@@]2(C)CCC(=O)C=C12 | – | 540 nM
CCO[C@@H]1C[C@@]2(C)C(=CC1=O)CC[C@@H]1[C@@H]2CC[C@]2(C)C(=O)CC[C@@H]12 | – | 11800 nM
C[C@]12CCC(=O)C=C1CC[C@@H]1[C@@H]2CC[C@]2(C)C(=O)C(Br)C[C@@H]12 (some centres undefined) | – | 2650 nM
CN1N=C2[C@H](C[C@H]3[C@@H]4CCC5=CC(=O)C=C[C@]5(C)[C@H]4CC[C@]23C)[C@H]1c1ccccc1 | – | 2450 nM
CC1(C)C[C@@]2(CO)C(=CC1=O)CC[C@@H]1[C@@H]2CC[C@]2(C)C(=O)CC[C@@H]12 | – | 5110 nM
C[C@]12C=CC(=O)C=C1[C@@H](OCc1ccccc1)C[C@@H]1[C@@H]2CC[C@]2(C)C(=O)CC[C@@H]12 | – | 1900 nM
CCCCO[C@@H]1C[C@@H]2[C@H](CC[C@]3(C)C(=O)CC[C@@H]23)[C@@]2(C)CCC(=O)C=C12 | – | 420 nM
CCOC1=C[C@@H]2[C@H](CC[C@]3(C)C(=O)CC[C@@H]23)[C@@]2(C)C=CC(=O)C=C12 | – | 951 nM

SMILES | IC50 (Aromatase [1]) [nM] | IC50 (Aromatase [2])
C[C@]12CCC(=O)C(S)=C1CC[C@@H]1[C@@H]2CC[C@]2(C)C(=O)CC[C@@H]12 | – | 3500 nM
C[C@]12CCC(=O)C(S)=C1CC[C@@H]1C2=CC[C@]2(C)C(=O)CC[C@@H]12 | – | 3800 nM
CC1(C)C[C@@]2(C=O)C(=CC1=O)CC[C@@H]1[C@@H]2CC[C@]2(C)C(=O)CC[C@@H]12 | – | 600 nM
CCCCCC(=O)O[C@H]1C[C@@H]2[C@H](CC[C@]3(C)C(=O)CC[C@@H]23)[C@@]2(C)C=CC(=O)C=C12 | – | 210 nM
CCCCCCCC(=O)O[C@H]1C[C@@H]2[C@H](CC[C@]3(C)C(=O)CC[C@@H]23)[C@@]2(C)CCC(=O)C=C12 | – | 150 nM
C[C@]12CC[C@H](OC(=O)C(F)(F)F)C[C@@H]1CC[C@@H]1[C@@H]2CC[C@]2(C)C(=O)/C(=C\c3ccccc3)C[C@@H]12 | – | 7110 nM
CCC(=O)N1N=C2[C@H](C[C@H]3[C@@H]4CC[C@H]5C[C@@H](OC(=O)C(F)(F)F)CC[C@]5(C)[C@H]4CC[C@]23C)[C@H]1c1ccccc1 | – | 6710 nM
COc1ccc([C@@H]2[C@H]3C[C@H]4[C@@H]5CC[C@H]6C[C@@H](OC(=O)C(F)(F)F)CC[C@]6(C)[C@H]5CC[C@]4(C)C3=NN2C)cc1 | – | 5780 nM
C[C@]12C=CC(=O)C=C1CC[C@@H]1[C@@H]2CC[C@]2(C)C3=NN[C@H](c4ccccc4)[C@H]3C[C@@H]12 | – | 3010 nM
C[C@]12C=CC(=O)C=C1C[C@@H](CCc1ccc(N)cc1)[C@@H]1[C@@H]2CC[C@]2(C)C(=O)CC[C@@H]12 | – | 18.7 nM
CC(=O)O[C@H]1C[C@@H]2[C@H](CC[C@]3(C)C(=O)CC[C@@H]23)[C@@]2(C)C=CC(=O)C=C12 | – | 1100 nM
CCCCCC(=O)O[C@@H]1C[C@@H]2[C@H](CC[C@]3(C)C(=O)CC[C@@H]23)[C@@]2(C)CCC(=O)C=C12 | – | 530 nM
CO[C@@H]1C[C@@H]2[C@H](CC[C@]3(C)C(=O)CC[C@@H]23)[C@@]2(C)CCC(=O)C=C12 | – | 170 nM
COc1ccc([C@@H]2[C@H]3C[C@H]4[C@@H]5CC[C@H]6C[C@@H](O)CC[C@]6(C)[C@H]5CC[C@]4(C)C3=NN2C)cc1 | – | 6120 nM
CCCCCCC(=O)O[C@H]1C[C@@H]2[C@H](CC[C@]3(C)C(=O)CC[C@@H]23)[C@@]2(C)CCC(=O)C=C12 | – | 95.1 nM
C[C@]12CCCC[C@@H]1CC[C@@H]1[C@@H]2CC[C@]2(C)C(=O)CC[C@@H]12 | – | 2300 nM
C[C@]12CC[C@H](OC(=O)C(F)(F)F)C[C@@H]1CC[C@@H]1[C@@H]2CC[C@]2(C)C3=NN(c4ccccc4)[C@H](c4ccccc4)[C@H]3C[C@@H]12 | – | 5680 nM
CCCCCCCC(=O)O[C@@H]1C[C@@H]2[C@H](CC[C@]3(C)C(=O)CC[C@@H]23)[C@@]2(C)CCC(=O)C=C12 | – | 1500 nM
C[C@]12CCC(=O)C(O)=C1CC[C@@H]1C2=CC[C@]2(C)C(=O)CC[C@@H]12 | – | 350 nM
C[C@]12C=CC(=O)C=C1CC[C@@H]1[C@@H]2CC[C@]2(C)C3=NN(c4ccccc4)[C@H](c4ccccc4)[C@H]3C[C@@H]12 | – | 1980 nM

SMILES | IC50 (Aromatase [1]) [nM] | IC50 (Aromatase [2])
C[C@]12C[C@@H](Cl)C(=O)C=C1CC[C@@H]1[C@@H]2CC[C@]2(C)C(=O)CC[C@@H]12 | – | 1400 nM
C[C@]12CC[C@@H]3C4CCC(=O)C=C4C(=O)C[C@H]3[C@@H]1CCC2=O (some centres undefined) | – | 12000 nM
COc1ccc([C@@H]2[C@H]3C[C@H]4[C@@H]5CC[C@H]6CC(=O)CC[C@]6(C)[C@H]5CC[C@]4(C)C3=NN2C)cc1 | – | 4560 nM
CC(=O)O[C@@H]1C[C@@H]2[C@H](CC[C@]3(C)C(=O)CC[C@@H]23)[C@@]2(C)CCC(=O)C=C12 | – | 20000 nM
COc1ccc([C@@H]2[C@H]3C[C@H]4[C@@H]5CC[C@H]6C[C@@H](O)CC[C@]6(C)[C@H]5CC[C@]4(C)C3=NN2c2ccccc2)cc1 | – | 5920 nM
C/C=C1\CC[C@@]2(C)[C@@H](CC[C@@H]3[C@@H]2CC[C@]2(C)C4=NN(C)[C@H](c5ccccc5)[C@H]4C[C@@H]32)C1 | – | 3510 nM
CCCCCC(=O)O[C@H]1C[C@@H]2[C@H](CC[C@]3(C)C(=O)CC[C@@H]23)[C@@]2(C)CCC(=O)C=C12 | – | 87.9 nM
C[C@]12CCC(=O)C=C1[C@@H](OCc1ccccc1)C[C@@H]1[C@@H]2CC[C@]2(C)C(=O)CC[C@@H]12 | – | 2500 nM
CC(=O)O[C@H]1[C@@H](n2ccnc2)C[C@H]2[C@@H]3CC=C4C[C@@H](N5CCCC5)CC[C@]4(C)[C@H]3CC[C@@]21C | – | 4900 nM
COCOC1=C2CC[C@@H]3[C@H](CC[C@]4(C)C(=O)CC[C@@H]34)[C@@]2(C)CCC1=O | – | 4400 nM
C[C@]12CCC(=O)C[C@@H]1CC[C@@H]1[C@@H]2CC[C@]2(C)C3=NN[C@H](c4ccccc4)[C@H]3C[C@@H]12 | – | 5240 nM
CCCC(=O)O[C@@H]1C[C@@H]2[C@H](CC[C@]3(C)C(=O)CC[C@@H]23)[C@@]2(C)CCC(=O)C=C12 | – | 2700 nM
C[C@]12CCC(=O)C=C1[C@H](Oc1ccccc1)C[C@@H]1[C@@H]2CC[C@]2(C)C(=O)CC[C@@H]12 | – | 23000 nM
CN1N=C2[C@H](C[C@H]3[C@@H]4CC[C@H]5C[C@@H](OC(=O)C(F)(F)F)CC[C@]5(C)[C@H]4CC[C@]23C)[C@H]1c1ccccc1 | – | 5810 nM
COc1ccc(/C=C2/C[C@H]3[C@@H]4CC[C@H]5C[C@@H](O)CC[C@]5(C)[C@H]4CC[C@]3(C)C2=O)cc1 | – | 7130 nM
CCCCCC(=O)O[C@@H]1C[C@@H]2[C@H](CC[C@]3(C)C(=O)CC[C@@H]23)[C@@]2(C)C=CC(=O)C=C12 | – | 1800 nM
CC(=O)O[C@H]1C[C@@H]2[C@H](CC[C@]3(C)C(=O)CC[C@@H]23)[C@@]2(C)CCC(=O)C=C12 | – | 4000 nM
C[C@]12CC[C@H](O)C[C@@H]1CC[C@@H]1[C@@H]2CC[C@]2(C)C3=NN[C@H](c4ccccc4)[C@H]3C[C@@H]12 | – | 6900 nM
COc1ccc(/C=C2/C[C@H]3[C@@H]4CC[C@H]5C[C@@H](OC(=O)C(F)(F)F)CC[C@]5(C)[C@H]4CC[C@]3(C)C2=O)cc1 | – | 7000 nM
C[C@]12CC[C@@H]3C4CCC(=O)C=C4CC[C@H]3[C@@H]1CCC2=O (some centres undefined) | – | 1200 nM
